≈ marks a conversion by molar mass, not a printed value. Read-outs that look alike come from different tables or passages of the source.
Columns and labels:
[1] = Solubility of Form A (aliquot addition / slurry, visual); type: physicochemical
Procedure: Aliquots of various solvents were added to measured amounts of Form A with agitation (typically sonication) at ambient or elevated temperatures until completedissolution was achieved, as judged by visual observation. […] Samples were left to slurry at ambient and elevated temperatures for several days; however, no further dissolution was observed.

[2] = Stressing of Form A at ~40° C./~75% RH; type: physicochemical
Procedure: Form A samples were stressed at ˜40° C./˜75% relative humidity (RH) for 25-27 days. The samples were added to glass vials and then placed uncapped in jars containing saturated salt solutions. The jars were sealed and placed in an oven. […] XRPD patterns for this sample were collected with a PANalytical X'Pert PRO MPD diffractometer using an incident beam of Cu Kα radiation produced using a long, fine-focus source and a nickel filter. The diffractometer was configured using the symmetric Bragg-Brentano. Prior to the analysis, a silicon specimen (NIST SRM 640d) was analyzed to verify the Si 111 peak position. A specimen of the sample was packing into a nickel-coated copper well. Antiscatter slits (SS) were used to minimize the background generated by air. Soller slits for the incident and diffracted beams were used to minimize broadening from axial divergence. Diffraction patterns were collected using a scanning position-sensitive detector (X'Celerator) located 240 mm from the sample and Data Collector software v. 2.2b. […] TG′analysis was performed using a TA Instruments Q5000 IR and 2950 thermogravimetric analyzers. Temperature calibration was performed using nickel and Alumel™. Each sample was placed in an aluminum pan. Samples ran on TA Instruments 2950 were left uncapped and samples ran on Q5000 was hermetically sealed, the lid pierced, then inserted into the TG furnace. The furnace was heated under nitrogen. The sample was heated from 0° C. to 350° C., at 10° C./min.

[3] = Moisture sorption profile (DVS) of Compound II Form I and amorphous Compound II; type: physicochemical; details: DVS at 25° C.
Procedure: The moisture sorption profile was generated of the sample as well as of a sample of amorphous Compound II at 25° C. using a DVS Moisture Balance Flow System (Model Advantage) with the following conditions: sample size approximately 10 mg, drying 25° C. for 60 minutes, adsorption range 0% to 95% RH, desorption range 95% to 0% RH, and step interval 5%. The equilibrium criterion was <0.01% weight change in 5 minutes for a maximum of 120 minutes.

[4] = PK study of Form I of Compound II in monkeys; type: in vivo; details: PO dose of 75 mg/kg; for concentration at 0.083 h / concentration at 0.25 h / concentration at 0.5 hr / concentration at 1 hr / concentration at 2 hr / concentration at 4 hr / concentration at 6 hr / concentration at 8 hr / concentration at 24 h: male, cynomolgus monkey, plasma, po, 75 mg/kg
Procedure: The pharmacokinetics (PK) properties of Form A of Compound I and Form I of Compound II were determined in a series of comprehensive experiments in preclinical species including Sprague-Dawley rats, beagle dogs, cynomolgus monkeys. In those studies, the Form A crystalline salt of Compound I (and Form I crystalline salt of Compound II) was formulated in saline, 0.5% MC in saline or other commonly used suitable formulation vehicles to give a clear solution or as a suspension or a paste depending on the concentration intended to reach and the choice of vehicles. Dosing was by oral gavage. Blood samples were drawn and placed into individual tube containing K2EDTA. Blood samples were put on ice and centrifuged (2000 g for 5 minutes at 4° C.) to obtain plasma within 15 minutes after collection. Plasma samples were stored at approximately −80° C. freezer until analysis. For most of these analyses, Compound I (and Compound II) and the internal standard (IS) were extracted from rat, monkey or dog plasma by protein precipitation, and the extract was evaporated, reconstituted and analyzed using HPLC with tandem mass spectrometric detection (HPLC-MS/MS), see examples for further details. Calibration was accomplished by weighted linear regression of the ratio of the peak area of analyte to that of the added internal standard (IS). For the validated assay in rat and monkey EDTA plasma, the Lower Limit of Quantitation (LLOQ) for both compound 1 and 2 was 5.00 ng/mL, and the assay was linear from 5.00-1,000 ng/mL. PK parameters were calculated by non-compartmental analysis using WinNonlin (versions 4.1 through 6.1). Non-naïve Cynomolgus monkeys, 3.2-3.5 kg, male Dosing solution was prepared by dissolving 682.96 mg of Form I of Compound II in 82.558 mL of 0.5% MC in saline, vortexing for 5 min and sonicating for 18 min to obtain a homogenous solution. The above solution was given to the animals at 10 mL/kg via intragastric administration To collect blood samples, the animals were restrained manually and approx. 0.6-1 mL blood/time point was collected from cephalic or sephanous veins into pre-cooled EDTA tubes. Blood samples were put on ice and centrifuged at 4° C. to obtain plasma within 30 minutes of sample collection. Plasma samples were stored at −70° C. until analysis. • Instrument LC-MS/MS (API4000) • MS conditions Positive ion, EST • HPLC conditions Mobile Phase A: H2O—0.025% formic acid—1 mM NH4OAc • Mobile Phase B: MeOH—0.025% formic acid—1 mM NH4OAc • Column: Boston Crest ODS-C18 (2.1×50 mm, 5 μm) • Flow rate: 0.40 mL/min • Compound II retention time: 2.30 min; • IS retention time: 2.29 min • Sample preparation An aliquot of 20 μL plasma sample was protein precipitated with […] which contains 5 ng/mL IS (P1100970-1). The mixture was vortexed for 2 min, and then centrifuged at 12000 rpm for 5 min. an aliquot of 5 μL supernatant was injected onto the LC-MS/MS system.

[5] = #0610703, read-out: plasma concentration
[6] = #0612169, read-out: plasma concentration
[7] = Mean, read-out: mean plasma concentration

Structure (SMILES): COC(=O)N[C@H](C(=O)N1CCC[C@H]1c1ncc(-c2ccc3cc(-c4ccc5nc([C@@H]6CCCN6C(=O)[C@@H](NC(=O)OC)C(C)C)[nH]c5c4)ccc3c2)[nH]1)C(C)C [Form A of Compound I]
- Solubility estimate (in words) ([1]; IPA and IPA/MTBE (2/1 (v/v)) mixtures at ambient and elevated temperatures, aliquot addition): poorly soluble
- solubility ([1]; IPA/water (95/5 v/v), organic solvent or mixture, thermodynamic from solid, IPA:H2O (95:5), RT, aliquot addition): 33000 µg/mL (≈ 43.3 mM)
- solubility ([1]; organic solvent or mixture, thermodynamic from solid, IPA, RT, aliquot addition): < 3000 µg/mL
- solubility at 4 days ([1]; organic solvent or mixture, thermodynamic from solid, IPA, RT, slurry, 4 days): < 3000 µg/mL
- solubility ([1]; organic solvent or mixture, thermodynamic from solid, IPA, ~60° C., aliquot addition): 2000 µg/mL (≈ 2.62 mM)
- solubility at 6 days ([1]; organic solvent or mixture, thermodynamic from solid, IPA, ~60° C., slurry, 6 days): < 6000 µg/mL
- solubility ([1]; organic solvent or mixture, thermodynamic from solid, IPA:tBME (2:1), RT, aliquot addition): < 2000 µg/mL
- solubility at 3 days ([1]; organic solvent or mixture, thermodynamic from solid, IPA:tBME (2:1), RT, slurry): < 2000 µg/mL
- solubility ([1]; organic solvent or mixture, thermodynamic from solid, IPA:tBME (2:1), ~60° C., aliquot addition): < 3000 µg/mL
- solubility at 3 days ([1]; organic solvent or mixture, thermodynamic from solid, IPA:tBME (2:1), ~60° C., slurry): < 3000 µg/mL
- Hygroscopicity (in words) ([2]; stressed ~40° C./~75% RH 27 days vs unstressed material): hygroscopic at high RH
- Thermogravimetric weight loss after stressing ([2]; ~40° C./~75% RH, after 27 days, from 25-225° C., equivalent to 5 moles of water): ~10%
- Solid form by XRPD after stressing ([2]; ~40° C./~75% relative humidity, uncapped, after 25 days): remained Form A

Structure (SMILES): CC[C@H](C)[C@H](NC(=O)OC)C(=O)N1CCC[C@H]1c1nc2ccc(-c3ccc4cc(-c5cnc([C@@H]6CCCN6C(=O)[C@@H](NC(=O)OC)[C@@H](C)OC)[nH]5)ccc4c3)cc2[nH]1 [Form I of Compound II]
- Hygroscopicity (in words) ([3]; 0-75% RH): medium hygroscopic
- Water absorption at high RH (in words) ([3]; ~85% RH and above): absorbed water very quickly
- weight percentage change (water uptake) from 0-75% RH ([3]; listed as Compound II Form I): 4.34%
- plasma concentration ([4]; Cynomolgus monkeys, 0.083 hr, #0610703): BQL
- concentration at 0.083 h ([4]; 0.083 hr, #0612169, read-out: plasma concentration): 8.33 ng/mL
- concentration at 0.083 h ([4]; 0.083 hr, Mean, read-out: mean plasma concentration): 8.33 ng/mL
- concentration at 0.25 h [4, 5]: 33.3 ng/mL
- concentration at 0.25 h [4, 6]: 86.8 ng/mL
- concentration at 0.25 h [4, 7]: 60.1 ng/mL
- concentration at 0.5 hr [4, 5]: 207 ng/mL
- concentration at 0.5 hr [4, 6]: 273 ng/mL
- concentration at 0.5 hr [4, 7]: 240 ng/mL
- concentration at 1 hr [4, 5]: 497 ng/mL
- concentration at 1 hr [4, 6]: 1140 ng/mL
- concentration at 1 hr [4, 7]: 819 ng/mL
- concentration at 2 hr [4, 5]: 336 ng/mL
- concentration at 2 hr [4, 6]: 954 ng/mL
- concentration at 2 hr [4, 7]: 645 ng/mL
- concentration at 4 hr [4, 5]: 213 ng/mL
- concentration at 4 hr [4, 6]: 435 ng/mL
- concentration at 4 hr [4, 7]: 324 ng/mL
- concentration at 6 hr [4, 5]: 110 ng/mL
- concentration at 6 hr [4, 6]: 194 ng/mL
- concentration at 6 hr [4, 7]: 152 ng/mL
- concentration at 8 hr [4, 5]: 55.9 ng/mL
- concentration at 8 hr [4, 6]: 93.1 ng/mL
- concentration at 8 hr [4, 7]: 74.5 ng/mL
- concentration at 24 h [4, 5]: 8.79 ng/mL
- concentration at 24 h [4, 6]: 7.37 ng/mL
- concentration at 24 h [4, 7]: 8.08 ng/mL

From patent US20150203474A1, “SOLID FORMS COMPRISING INHIBITORS OF HCV NS5A, COMPOSITIONS THEREOF, AND USES THEREWITH” (PRESIDIO PHARMACEUTICALS ,INC., priority 2012, published 2015)
